# Reference: patent publication US20240150346A1, “CLASS OF HETEROAROMATIC COMPOUND, PREPARATION METHOD THEREFOR AND USE THEREOF” (INNOVSTONE THERAPEUTICS LIMITED, priority 2021, published 2024)
# Counter-ions that a name gives are not always drawn.
# Biological target: T1, human-detived receptor TLR8 (Homo sapiens, UniProt Q9NR97)
# T1 construct: host or cells: HEK-Blue hTLR8 cells (HEK293-derived reporter line)
# T1 sequence (Q9NR97 27-1041): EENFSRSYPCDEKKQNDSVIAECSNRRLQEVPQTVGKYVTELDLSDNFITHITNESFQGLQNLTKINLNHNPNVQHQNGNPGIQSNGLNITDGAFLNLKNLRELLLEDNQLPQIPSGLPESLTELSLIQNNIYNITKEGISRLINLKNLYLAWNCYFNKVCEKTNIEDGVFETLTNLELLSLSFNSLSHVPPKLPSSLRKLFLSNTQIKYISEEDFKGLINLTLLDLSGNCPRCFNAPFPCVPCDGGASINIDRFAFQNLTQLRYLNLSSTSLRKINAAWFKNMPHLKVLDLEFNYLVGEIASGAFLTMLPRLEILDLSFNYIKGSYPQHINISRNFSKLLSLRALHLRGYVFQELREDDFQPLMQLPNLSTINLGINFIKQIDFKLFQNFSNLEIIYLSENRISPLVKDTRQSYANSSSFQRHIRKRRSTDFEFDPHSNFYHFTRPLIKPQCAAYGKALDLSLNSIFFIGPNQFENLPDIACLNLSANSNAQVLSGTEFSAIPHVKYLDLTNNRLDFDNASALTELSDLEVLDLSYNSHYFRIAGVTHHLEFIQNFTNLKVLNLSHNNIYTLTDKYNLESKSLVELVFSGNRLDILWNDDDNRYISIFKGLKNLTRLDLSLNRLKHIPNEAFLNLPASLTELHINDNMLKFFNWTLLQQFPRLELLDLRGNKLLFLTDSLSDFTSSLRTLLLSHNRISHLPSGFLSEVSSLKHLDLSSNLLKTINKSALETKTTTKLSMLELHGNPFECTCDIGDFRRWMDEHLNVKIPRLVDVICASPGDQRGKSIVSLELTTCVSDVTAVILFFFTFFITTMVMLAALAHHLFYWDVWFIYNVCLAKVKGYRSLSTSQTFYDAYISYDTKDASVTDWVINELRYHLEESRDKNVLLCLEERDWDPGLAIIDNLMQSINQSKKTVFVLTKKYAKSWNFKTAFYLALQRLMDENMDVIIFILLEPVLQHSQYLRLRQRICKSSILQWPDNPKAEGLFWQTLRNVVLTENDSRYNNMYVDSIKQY
# Assay: Assay on agonistic activity for human-detived receptor TLR8 (HEK-Blue hTLR8 cells, HEK-Blue Detection Medium)
# Format: cell-based
# Details: 16 h incubation, absorbance at 620 nm
# Description: The assay on the agonistic activity for human-detived receptor TLR7 was performed as that in Test Example 1; • the method for assaying the agonistic activity for the human-detived receptor TLR8 was as follows: HEK-Blue™ hTLR8 cells (InvivoGen, hkb-htlr8) were cultured in a DMEM complete medium (Gibco, 11965-092) containing 10% FBS (Invitrogen, 10099-141c), 1% P/S (Invitrogen, 15140-122), 10 μg/mL Blasticidin (InvivoGen, R210-01), 100 μg/mL Zeocin (InvivoGen, ant-zn), and 100 μg/mL Normocin (InvivoGen, Ant-nr-2). The cells were cultured in an incubator at 37° C. with 5% CO2. When HEK-Blue™ hTLR8 cells reached a growth density of 70%-80%, cell passage was needed.
# The agonistic activity for the human-detived receptor TLR8 by HEK-Blue™ hTLR8 cells was assayed by HEK-Blue™ Detection Medium (InvivoGen, hb-det3). First, a bag of HEK-Blue™ Detection Medium powder was completely dissolved, and then filtered through a 0.22 μm filter. Antibiotics were then added until the final concentration was 1% P/S and 100 μg/mL Normocin. HEK-Blue™ Detection Medium was pre-heated to 37° C. in advance on the day of the assay on the activity for the TLR8 receptor, and the temperature was always maintained at 37° C.
# The compound powder was dissolved in 100% DMSO (Sigma, D8418-1L) to obtain a 10 mM stock solution, and the compound was completely dissolved by shaking with an oscillator for later use.
# The cell culture medium was removed from HEK-Blue™ hTLR8 cells with a growth density of 70-80%. Then, the cells were washed 2-3 times with PBS (Gibco, 10010-031). The cells were digested and then pipetted with a DMEM cell culture medium to a single cell suspension, which was then centrifuged at 1000 rpm for 10 min to collect the cell pellet. […] The cells were counted, diluted to a plating density, and transferred to a 384-well cell culture plate (Corning, 3764). […] After incubation in an incubator at 37° C. for 16 h, the absorbance was read at 620 nm using a microplate reader (PerkinElmer, VICTOR Nivo).
# The EC50 of the compound was calculated using the GraphPad Prism 8 software (GraphPad Software, USA). The reading of the negative control well (the well without the compound) was subtracted from the absorbance reading at 620 nm of the compound, and was divided by the ratio of the difference between the positive control (1 μM positive compound) and the negative control well, so that the percentage of the ratio of each well to the ratio of the positive control well (the well treated with 10 μM positive compound), i.e., the percentage of activity, was calculated. Finally, the sigmoidal dose-response (variable slope) curve between the percentage of activity and the concentration of the compound was calculated using the software GraphPad Prism to calculate the EC50 of the compound.
row,EC50 [µM],Compound
1,> 10,"COc1nc2c(N)nc3ccccc3c2n1Cc1ccc(CN2CCCC2)cc1 [Comparative Example 1, 2-methoxy-1-((4-((pyrrolidin-1-yl)methyl)phenyl)methyl)-1H-imidazo[4,5-c]quinolin-4-amine trifluoroacetate, reference compound]"
2,> 10,"CSc1nc2c(N)nc3ccccc3c2n1Cc1ccc(CN2CCCC2)cc1 [Example 40, 2-(methylthio)-1-(4-(pyrrolidin-1-ylmethyl)benzyl)-1H-imidazo[4,5-c]quinoline-4-amine]"
3,> 10,CSc1nc2c(N)nc3ccccc3c2n1Cc1ccc(N2CCN(C)CC2)nc1 [Example 199]
4,> 10,COc1cc(CN(C)C)ccc1Cn1c(SC)nc2c(N)nc3ccccc3c21 [Example 240]
